Read-outs that look alike come from different tables or passages of the source.
How the values were obtained:
[1] = tested on: monoclonal antibody XIIIE82 /H8; test: Binding of radioactive Ca2+ channel blockers to monoclonal antibody XIIIE82 /H8-Sepharose 6MB beads; set-up: species or system mouse; conditions: for ability to bind to monoclonal antibody XIIIE82 /H8-Sepharose 6MB beads (in words): 1.0 nM concentration; for CPM Bound / fmoles of Ca2+ channel blocker specifically bound per μg of monoclonal antibody XIIIE82 /H8: [3H]calcium channel blocker 1.0 nM
Protocol: Various radioactive Ca^2+ channel blockers at a 1.0 nM concentration were tested for their ability to bind to monoclonal antibody XIIIE82 /H8-Sepharose 6MB beads.

[2] = tested on: New Zealand white rabbits; conditions: immunized rabbits
Description: In order to raise antibodies against the 1,4-hydropyridines, a bovine serum albumin-nifedipine iothiocyanate immunogen conjugate was used directly for immunization or was cross-linked with 0.04% glutaraldehyde for eight hours at room temperature prior to immunization of rabbits. In either case, the immunogen conjugate was emulsified in an equal volume of Freund's complete adjuvant.
New Zealand white rabbits were bled to obtain pre-immune sera and were then immunized intramuscularly and intradermally at multiple sites along the back and legs. Rabbits received 0.5 milligram (mg) of bovine serum albumin-nifedipine isothiocyanate immunogen conjugate in Freund's complete adjuvant on day 0 followed by 0.5 mg insults in Freund's incomplete adjuvant every 2-3 weeks. Rabbits were bled after their third immunization every two weeks. Blood was withdrawn from the ear vein, allowed to clot overnight at 4° C., and serum was isolated by centrifugation. In order to reduce the antibodies produced to bovine serum albumin, subsequent immunizations were carried out with keyhole limpet hemocyanin-nifedipine isothiocyanate immunogen conjugates. […]

[3] = tested on: polyclonal antibodies prepared against the immunogen conjugates; test: Cross-reactivity with polyclonal antibodies prepared against the immunogen conjugates; assay type: binding
[4] = tested on: monoclonal antibody XIIIE82 /H8; test: Nifedipine radioimmunoassay using monoclonal antibody XIIIE82 /H8-Sepharose 6MB beads; conditions: 100 pM [3H]nitrendipine
[5] = biological target: XH42 /Gl monoclonal antibody; test: Competitive binding assay according to the method of Muller, XH42 /Gl; set-up: species or system mouse; conditions: [3H]nitrendipine-XH42 /Gl monoclonal antibody complex; read-out: average apparent dissociation constant (kd)
Protocol: (§1) The affinity of the monoclonal antibodies of the present invention for [^3 H]nitrendipine was determined using a competitive binding assay according to the method of Muller (Muller, R., Methods in Enzylmology, 92, 589-601, 1983).

[6] = biological target: XIIIE82 /H8-monoclonal antibody; test: Competitive binding assay according to the method of Muller, XIIIE82 /H8; set-up: species or system mouse; conditions: [3H]nitrendipine-XIIIE82 /H8-monoclonal antibody complex; read-out: average apparent dissociation constant (Kd)
Protocol: as §1

[7] = tested on: 1,4-dihydropyridine-specific antibodies; test: 1,4-Dihydropyridine radioimmunoassay (dextran-coated charcoal separation), nitrendipine standard curve; assay type: binding; conditions: 20 pM [3H]nitrendipine; for % B/Bo: 60 min
Protocol: After a 1 hour incubation in the dark at room temperature, the assay tubes were transferred to an ice water bath for 10 min. […] After an additional 12 minutes in the ice bath, the assay tubes were centrifuged for 15 minutes at 850×g in a Beckman TJ-6 centrifuge. A 0.80 ml sample of the clear supernatant was then added to 10 ml of liquid scintillation fluid and counted in a Beckman LS8100 liquid scintillation counter. […] An alternate procedure for the RIA on human plasma samples involves the dilutions of standards in normal pooled human plasma (rather than in bovine serum albumin in saline, as described above) and the use of 0.2 ml aliquots of standard or human plasma samples.

[8] = tested on: monoclonal antibody XH42 /G1
[9] = nifedipine standard 3.7 nanograms/ml in final assay mixture
[10] = nifedipine standard 11.2 nanograms/ml
[11] = nifedipine standard 18.7 nanograms/ml
[12] = nifedipine standard 37.3 nanograms/ml
[13] = nifedipine standard 112.0 nanograms/ml
[14] = nifedipine standard 186.7 nanograms/ml
[15] = nifedipine standard 373.4 nanograms/ml
[16] = nifedipine standard 1866.8 nanograms/ml
[17] = nitrendipine standard 18.0 picograms/ml in final assay mixture
[18] = nitrendipine standard 36.0 picograms/ml
[19] = nitrendipine standard 72.0 picograms/ml
[20] = nitrendipine standard 180.0 picograms/ml
[21] = nitrendipine standard 360.0 picograms/ml
[22] = nitrendipine standard 720.0 picograms/ml
[23] = nitrendipine standard 1800.0 picograms/ml
[24] = nitrendipine standard 0.4 nanograms/ml in final assay mixture
[25] = nitrendipine standard 1.1 nanograms/ml
[26] = nitrendipine standard 1.8 nanograms/ml
[27] = nitrendipine standard 3.7 nanograms/ml
[28] = nitrendipine standard 11.0 nanograms/ml
[29] = nitrendipine standard 18.3 nanograms/ml
[30] = nitrendipine standard 37.4 nanograms/ml

Question: For `COC(=O)C1=C(C)NC(C)=C(C(=O)OC(C)C)C1c1cccc2nonc12` (single isomer, unassigned) [[^3 H]PN200-110], which “ability to bind to monoclonal antibody XIIIE82 /H8-Sepharose 6MB beads (in words)” value (shortened to “ability to bind”) [1] is on record?
Answer: specifically bind

Question: And the “CPM Bound” value [1]?
Answer: 9419 CPM

Question: And the “fmoles of Ca2+ channel blocker specifically bound per μg of monoclonal antibody XIIIE82 /H8” value [1]?
Answer: 4.8 fmol/µg

Question: With Keyhole limpet hemocyanin as the molecule, how does the “time to antibody response” value [2] read?
Answer: 4 weeks

Question: And the “titer of antiserum of 1,4-dihydropyridine-specific antibodies” value [2]?
Answer: highest titer

Question: Which results are given for `COc1ccc(CCN(C)CCCC(C#N)(c2ccc(OC)c(OC)c2)C(C)C)cc1OC` (centres unmarked) [[^3 H]Verapamil]?
Answer: ability to bind to monoclonal antibody XIIIE82 /H8-Sepharose 6MB beads (in words) [1]: did not bind; CPM Bound [1]: 234 CPM; fmoles of Ca2+ channel blocker specifically bound per μg of monoclonal antibody XIIIE82 /H8 [1]: 0.2 fmol/µg

Question: With `COc1ccc([C@@H]2Sc3ccccc3N(CCN(C)C)C(=O)[C@@H]2OC(C)=O)cc1` [diltiazem] as the molecule, how does the “cross-reaction with the antibodies” value [3] read?
Answer: do not cross-react

Question: Which “ability to bind” value [1] does the source give for `COC(=O)C1=C(C)NC(C)=C(C(=O)OC)C1c1ccccc1N=C=S` [[^3 H]Nifedipine-Analog, 1,4-dihydro-2,6-dimethyl-4-(2-isothiocyanatophenyl)-3,5-pyridinedicarboxylic acid dimethyl ester] here?
Answer: specifically bind

Question: What about the “CPM Bound” value [1] of the same molecule?
Answer: 26000 CPM

Question: What about the “fmoles of Ca2+ channel blocker specifically bound per μg of monoclonal antibody XIIIE82 /H8” value [1] of the same molecule?
Answer: 18.8 fmol/µg

Question: For `COc1ccc([C@@H]2Sc3ccccc3N(CCN(C)C)C(=O)[C@@H]2OC(C)=O)cc1` [[^3 H]Diltiazem], which “ability to bind” value [1] is on record?
Answer: did not bind

Question: What about the “CPM Bound” value [1] of the same molecule?
Answer: 225 CPM

Question: And the “fmoles of Ca2+ channel blocker specifically bound per μg of monoclonal antibody XIIIE82 /H8” value [1]?
Answer: 0.1 fmol/µg

Question: For `COC(=O)C1=C(C)NC(C)=C(C(=O)OC)C1c1ccccc1[N+](=O)[O-]` [Nifedipine], which “% B/Bo” value [4, 9] is on record?
Answer: 102.0%

Question: And the “Net CPM” value [4, 9]?
Answer: 8010 CPM

Question: What about the “% B/Bo” value [4, 10] of the same molecule?
Answer: 98.2%

Question: And the “Net CPM” value [4, 10]?
Answer: 7708 CPM

Question: And the “% B/Bo” value [4, 11]?
Answer: 76.7%

Question: What about the “Net CPM” value [4, 11] of the same molecule?
Answer: 6027 CPM

Question: What about the “% B/Bo” value [4, 12] of the same molecule?
Answer: 50.9%

Question: And the “Net CPM” value [4, 12]?
Answer: 3998 CPM

Question: And the “% B/Bo” value [4, 13]?
Answer: 23.4%

Question: And the “Net CPM” value [4, 13]?
Answer: 1837 CPM

Question: And the “% B/Bo” value [4, 14]?
Answer: 14.5%

Question: And the “Net CPM” value [4, 14]?
Answer: 1138 CPM

Question: And the “% B/Bo” value [4, 15]?
Answer: 8.6%

Question: And the “Net CPM” value [4, 15]?
Answer: 677 CPM

Question: And the “% B/Bo” value [4, 16]?
Answer: 2.4%

Question: And the “Net CPM” value [4, 16]?
Answer: 190 CPM

Question: For `COCCOC(=O)C1=C(C)NC(C)=C(C(=O)OC(C)C)C1c1cccc([N+](=O)[O-])c1` (centres unmarked) [[^3 H]Nimodipine], which “ability to bind” value [1] is on record?
Answer: specifically bind

Question: What about the “CPM Bound” value [1] of the same molecule?
Answer: 57439 CPM

Question: And the “fmoles of Ca2+ channel blocker specifically bound per μg of monoclonal antibody XIIIE82 /H8” value [1]?
Answer: 20.9 fmol/µg

Question: How did the “cross-reaction with the antibodies” value [3] turn out when `COc1ccc(CCN(C)CCCC(C#N)(c2ccc(OC)c(OC)c2)C(C)C)cc1OC` (centres unmarked) [verapamil] was run?
Answer: do not cross-react

Question: How did the “ability to bind” value [1] turn out when `CCOC(=O)C1=C(C)NC(C)=C(C(=O)OC)C1c1cccc([N+](=O)[O-])c1` (centres unmarked) [[^3 H]Nitrendipine, 2,6-dimethyl-3-carboethoxy-5-carbomethoxy-4-(3-nitrophenyl)-1,4-dihydropyridine] was run?
Answer: specifically bind

Question: And the “CPM Bound” value [1]?
Answer: 59103 CPM

Question: And the “fmoles of Ca2+ channel blocker specifically bound per μg of monoclonal antibody XIIIE82 /H8” value [1]?
Answer: 33.8 fmol/µg

Question: What about the Kd [5] of the same molecule?
Answer: 0.0125 µM

Question: What about the Kd [6] of the same molecule?
Answer: 0.026 µM

Question: For `CCOC(=O)C1=C(C)NC(C)=C(C(=O)OC)C1c1cccc([N+](=O)[O-])c1` (centres unmarked) [Nitrendipine, 2,6-dimethyl-3-carboethoxy-5-carbomethoxy-4-(3-nitrophenyl)-1,4-dihydropyridine], which “Net CPM” value [7, 17] is on record?
Answer: 1492 CPM

Question: And the “% B/Bo” value [7, 17]?
Answer: 85.4%

Question: And the “Net CPM” value [7, 18]?
Answer: 1406 CPM

Question: And the “% B/Bo” value [7, 18]?
Answer: 80.5%

Question: What about the “Net CPM” value [7, 19] of the same molecule?
Answer: 1024 CPM

Question: And the “% B/Bo” value [7, 19]?
Answer: 58.6%

Question: And the “Net CPM” value [7, 20]?
Answer: 673 CPM

Question: What about the “% B/Bo” value [7, 20] of the same molecule?
Answer: 38.5%

Question: What about the “Net CPM” value [7, 21] of the same molecule?
Answer: 482 CPM

Question: What about the “% B/Bo” value [7, 21] of the same molecule?
Answer: 27.6%

Question: And the “Net CPM” value [7, 22]?
Answer: 346 CPM

Question: And the “% B/Bo” value [7, 22]?
Answer: 19.8%

Question: And the “Net CPM” value [7, 23]?
Answer: 225 CPM

Question: What about the “% B/Bo” value [7, 23] of the same molecule?
Answer: 12.9%

Question: What about the “% B/Bo” value [8, 24] of the same molecule?
Answer: 107.1%

Question: What about the “Net CPM” value [8, 24] of the same molecule?
Answer: 2043 CPM

Question: And the “% B/Bo” value [8, 25]?
Answer: 87.8%

Question: What about the “Net CPM” value [8, 25] of the same molecule?
Answer: 1676 CPM

Question: What about the “% B/Bo” value [8, 26] of the same molecule?
Answer: 76.3%

Question: And the “Net CPM” value [8, 26]?
Answer: 1456 CPM

Question: What about the “% B/Bo” value [8, 27] of the same molecule?
Answer: 60.2%

Question: What about the “Net CPM” value [8, 27] of the same molecule?
Answer: 1149 CPM

Question: What about the “% B/Bo” value [8, 28] of the same molecule?
Answer: 37.6%

Question: What about the “Net CPM” value [8, 28] of the same molecule?
Answer: 717 CPM

Question: And the “% B/Bo” value [8, 29]?
Answer: 28.1%

Question: What about the “Net CPM” value [8, 29] of the same molecule?
Answer: 535 CPM

Question: What about the “% B/Bo” value [8, 30] of the same molecule?
Answer: 17.5%

Question: And the “Net CPM” value [8, 30]?
Answer: 333 CPM

From US4784955A, “Immunogen conjugates and the use thereof in a dihydropyridine assay” (Miles Inc., priority 1986, dated 1988)
